The values that follow come from patent publication US20250320471A1, “Method for Producing Compounds, Method for Producing Compound Library, Compound Library, and Screening Method” (The University of Tokyo, priority 2021, published 2025).

For data set [1], the system named is LimF. As to the kind of experiment: FIT-LimF system: one-pot in vitro expression and prenylation of teMPs. To be noted: 16 hours; for Modification Efficiency % (Tyr prenylation): FIT-LimF system, 20 μM LimF. In kind it is biochemical, Limnothrix sp. CACIAM 69d. The source says:
First, teMP (teLimE2) mimicking the sequence of bcLimE2 was designed and expressed by genetic code reprogramming using customized cell-free translation, and the so-called flexible in vitro translation (FIT) system (Goto, Y, Katoh, T. & Suga, Flexizymes for genetic code reprogramming. Nat. Protoc., 6, 779-790 (2011)). Specifically, the AUG start codon was reprogrammed with N-chloroacetyl-D-phenylalanine (^ClAcD-F), a linear precursor having a chloroacetyl group (ClAc group) at the N-terminal was expressed, and a thioether bond was formed by a spontaneous ring-closing SN2 reaction with a downstream Cys thiol (FIG. 7a). Note that the FIT system had the composition described below.
teLimE2 expressed in vitro was incubated for 16 hours at 25° C. in the presence of 100 μM LimF and analyzed by LC-MS. […] The in vitro translation system conjugated with LimF will be referred to hereinafter as the FIT-LimF system.
38 types of teLimE2 variants in which the His-1 and His+1 positions were substituted with 19 types of proteinogenic amino acid other than Cys were designed and then expressed and modified in the FIT-LimF system. The reaction results were analyzed by LC-MS. In the present experiment, the prenylation process was performed under intentionally poor modification efficiency conditions by using a low LimF concentration (10 μM). This allowed for more accurate investigation of the influence of His−1 and His+1 amino acids.
The following series of experiments examined whether teMPs of various ring sizes were tolerated by LimF. Thirteen teMP variants with different ring sizes (4 to 18 residues) and a preferred local sequence motif (Ser-His-Ala/Cys) were designed.
Next, it was shown that LimF can modify teMPs having a variety of random sequences. Five teMPs composed of random sequences were expressed and modified using the FIT-LimF system (LimF concentration: 10 μM) (FIG. 7e). […]
Target sequence in this assay (as listed by the source): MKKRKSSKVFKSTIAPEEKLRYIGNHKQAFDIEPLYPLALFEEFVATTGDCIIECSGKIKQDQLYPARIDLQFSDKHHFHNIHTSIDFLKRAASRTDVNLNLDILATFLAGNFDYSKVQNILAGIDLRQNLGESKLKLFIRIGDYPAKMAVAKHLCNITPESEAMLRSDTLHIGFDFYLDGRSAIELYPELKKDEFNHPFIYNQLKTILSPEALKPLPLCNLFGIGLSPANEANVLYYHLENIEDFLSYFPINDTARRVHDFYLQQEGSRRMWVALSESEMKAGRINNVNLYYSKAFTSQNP

The test system of data set [2] is LimF. As to the kind of experiment: Initial evaluation of LimF with estimated substrates bcLimE1-3 (LC-MS). Format: biochemical, Limnothrix sp. CACIAM 69d. The conditions noted are these: for geranylation by LimF (LC-MS): 20 μM LimF, 20 μM peptide, 2 mM geranyl pyrophosphate, 20 mM MgCl2, pH 7.5, 37° C., 12 hours. The procedure: In order to examine the enzymatic activity of LimF, LimF was heterologously-expressed in Escherichia coli using the method described above and incubated with chemically synthesized bcLimE1, bcLimE2 or bcLimE3 in the presence of MgCl2 and a prenyl group donor (geranyl pyrophosphate (GPP)). The reaction conditions were as described below.
First, the same experiment as described above was performed using farnesyl pyrophosphate instead of geranyl pyrophosphate as a prenyl group donor. As a result, a trace amount of farnesylated bcLimE2 was generated, although at a lower efficiency than when GPP was used.
The initial evaluation of LimF using estimated substrates (bcLimE1, bcLimE2, and bcLimE3) was performed as follows. An enzymatic reaction was performed for 12 hours at 37° C. under the conditions of LimF (20 μM), peptide substrate (20 μM), prenyl group donor (geranyl pyrophosphate or farnesyl pyrophosphate) (2 mM), HEPES (50 mM, pH 7.5), MgCl2 (20 mM), and DTT (1 mM). After reacting the substrates bcLimE1, bcLimE2, and bcLimE3 for 12 hours at 37° C., respectively, nine times the amount of 1% TFA was added and centrifuged at 4° C. (15300×g, 10 minutes), and a supernatant was recovered. 10 μL of the obtained supernatant was subjected to LC-MS analysis.

For data set [3], the system named is LimF. The data set can be described thus: Steady-state kinetics of prenylation facilitated by LimF (wild type). Format: biochemical, Limnothrix sp. CACIAM 69d. To be noted: His-prenylation (C10), 1 mM GPP, 40 mM MgCl2, pH 7.2, 25° C. How it is done: Under optimal conditions, the steady-state kinetic parameters of the prenylation reaction of bcLimE2 facilitated by LimF were measured by the methods described below.
The concentration dependence of GPP and MgCl2 in bcLimE2 prenylation reactions facilitated by LimF was measured in reaction systems containing 1 μM LimF, 1 mM or a suitably modified concentration of GPP, 50 mM HEPES pH 7.2, 0.4 mM substrate, 1 mM DTT, and 40 mM or a suitably modified concentration of MgCl2. A reaction solution containing components other than GPP was prepared and preheated to 25° C., and the reaction was then started by adding GPP. After incubating at 25° C., the reaction was stopped at each point and analyzed by LC-MS. Next, the initial rate was calculated as the slope of increase in the amount of prenylation product produced in the linear region. Three separate reactions were carried out under each condition and the mean and standard deviation of the results were used for the analysis.
For GPP concentration dependence and peptide substrate concentration dependence, the kinetic parameters were estimated by fitting the initial rate and GPP substrate concentration or peptide substrate concentration to the Michaelis-Menten model in Graphpad Prism 8.4.2 (GraphPad Prism Software Inc., San Diego, California) software.
Kinetic parameters of the His-prenylation reaction facilitated by LimF were determined based on reactions under optimal conditions using substrates of different concentrations. For the Tyr-prenylation described below, the kinetic parameters were measured under the same conditions except that LimF was set to 5 μM and the reaction temperature was set to 16° C. In order to estimate the kinetic parameters, the initial rate and substrate concentration were fitted to the Michaelis-Menten model in Graphpad Prism 8.4.2 software.
In order to further evaluate the two different prenylation modes by LimF, two teMPs (teR6-H5A/Y7H and teR6-H5A) that undergo efficient His-prenylation and Tyr-prenylation, respectively, were designed and chemically synthesized. Kinetic analysis was carried out according to the above method using these peptides.

In data set [4] the test system is bcLimE2. The data set can be described thus: Prenyl group donor tolerance of LimF variants (conversion of bcLimE2). In kind it is biochemical. Also noted: key to Final Conversion Efficiency: “n.r.” indicates that the reaction did not proceed. The conditions noted are these: for Final Conversion Efficiency: substrate bcLimE2. How it is done: An attempt was made to change the selectivity of LimF with respect to prenyl group donors examined in “2. Evaluation of Enzymatic Activity of LimF” by introducing a mutation into LimF. […], illustrated in FIG. 7(a), was used as the substrate.
For the assay of LimF variants, 100 μM bcLimE2 was incubated individually at a 5 μL scale with 20 to 100 μM LimF variants under conditions of 1 mM GPP or DMAPP, 50 mM HEPES (pH 7.2), 40 mM MgCl2, 1 mM DTT, and DMSO (4%, v/v). After incubating for 16 hours at 25° C., the reaction was stopped by adding 9 times the amount (45 μL) of a 1% TFA aqueous solution. Next, the mixture was incubated on ice for 10 minutes, a precipitate was separated by centrifugation at 4° C. (15300×g, 10 minutes), and 1 μL of supernatant was subjected to LC-MS analysis.
An amino acid forming a small pocket that stores a prenyl group in the crystal structure was selected for the introduction site of the LimF mutation. Specifically, Gly at position 224 was selected, and this was substituted with a larger amino acid. […] This alignment supports the hypothesis that the 224th Gly contributes to prenyl group selectivity.
For the assay of LimF variants, 100 μM bcLimE2 was incubated individually at a […] with 20 to 100 μM LimF variants under conditions of 1 mM GPP or FPP, 50 mM HEPES (pH 7.2), 5 mM MgCl2, 1 mM DTT, and DMSO (4%, v/v). After incubating for 16 hours at 25° C., the reaction was stopped by adding 9 times the amount ([…]) of a 1% TFA aqueous solution. Next, the mixture was incubated on ice for 10 minutes, a precipitate was separated by centrifugation at 4° C. (15300×g, 10 minutes), and 1 μL of supernatant was subjected to LC-MS analysis.
An amino acid forming a small pocket that stores a prenyl group in the crystal structure was selected for the introduction site of the LimF mutation. Specifically, the amino acids at the positions described in the table in the left column of FIG. 19 were replaced with relatively small Ala.
Therefore, substitution of amino acids other than Ala with respect to the W273 position was comprehensively performed (middle column of FIG. 19). As a result, The mutation for W273N and W273T are focused, and in addition to the W273N mutation and the W273T mutation, simultaneous substitution with various amino acids was performed for His at 239, which is an amino acid adjacent to position 273 (right column of FIG. 19).

In data set [5] the target is T1, bcLimE2.
T1 chain: RYPHEEIP

“And” between values parts separate entries of the source, which are not always exact repeats. Equal values may be shown once. Peptide text beside a SMILES is read from it.

For DHis, the “prenylation by LimF in FIT-LimF system” value with LimF [1] (100 μM LimF, 25° C., LC-MS) is “favorable substrates”.

Consider `CCC(C)C1NC(=O)C(CC(N)=O)NC(=O)C(C(C)O)NC(=O)C(C(C)CC)NC(=O)C2CCCN2C(=O)C(CC(=O)O)NC(=O)C(Cc2ccc(O)cc2)NC(=O)C(Cc2ccccc2)NC1=O` (stereo not shown) [bcLimE3] (cyclo(DPITNIFY); configuration not given here), for which the “geranylation by LimF (LC-MS)” value in the data set with LimF [2] is listed as “not subjected to geranylation”.

Usually Km stands for the substrate concentration at which the rate is half of its maximum. `CCC(C)C1NC(=O)C(CCC(=O)O)NC(=O)C(CCC(=O)O)NC(=O)C(Cc2c[nH]cn2)NC(=O)C2CCCN2C(=O)C(Cc2ccc(O)cc2)NC(=O)C(CCCNC(=N)N)NC(=O)C2CCCN2C1=O` (stereo not shown) [bcLimE2] (cyclo(EEIPRYPH); configuration not given here): the “geranylation by LimF (LC-MS)” value in the data set with LimF [2] is reported as “quantitatively converted”. In addition, in the data set on LimF [2] (farnesyl pyrophosphate instead of GPP as prenyl group donor, otherwise as geranylation test), the “farnesylation by LimF” value was “trace amount”. The Kcat in the data set on LimF [3] turned out to be 0.23 ± 0.01 s⁻¹; with LimF [3] (listed as cyclo[RYPHEEIP]) it was 0.23 s⁻¹. For the same molecule, the Km in the data set on LimF [3] was 313 µM and 310 µM.

Regarding “tecyclo [y I T N I T Y D P C] (ITNITYDPC; not fully specified; cyclized with D-Tyr)”, the “Modification Efficiency % (Tyr prenylation)” value with LimF [1] amounted to 21%.

For “tecyclo [y I T N I A Y D P C] (ITNIAYDPC; not fully specified; cyclized with D-Tyr)”, the “Modification Efficiency % (Tyr prenylation)” value in the data set on LimF [1] came to 1%.

B1: LimF-H239G/W273T (protein)
chain: MKKRKSSKVFKSTIAPEEKLRYIGNHKQAFDIEPLYPLALFEEFVATTGDCIIECSGKIKQDQLYPARIDLQFSDKHHFHNIHTSIDFLKRAASRTDVNLNLDILATFLAGNFDYSKVQNILAGIDLRQNLGESKLKLFIRIGDYPAKMAVAKHLCNITPESEAMLRSDTLHIGFDFYLDGRSAIELYPELKKDEFNHPFIYNQLKTILSPEALKPLPLCNLFGIGLSPANEANVLYYGLENIEDFLSYFPINDTARRVHDFYLQQEGSRRMTVALSESEMKAGRINNVNLYYSKAFTSQNP
For the molecule B1, the “C15 prenylation (farnesylation) selectivity and efficiency” value in the data set with bcLimE2 [4] (100 μM bcLimE2, 1 mM GPP or FPP, 5 mM MgCl2, 16 hours, 25° C.) is “high selectivity and high efficiency”. The “Final Conversion Efficiency” value with bcLimE2 [4] (prenyl group donor DMAPP) is listed as “n.r”; with bcLimE2 [4] (prenyl group donor FPP) it was greater than 99%; with bcLimE2 [4] (prenyl group donor GGPP), “n.r”; in the data set on bcLimE2 [4] (prenyl group donor GPP), 16.9%. For the same molecule, the KM (mM), kinetics of prenylation of bcLimE2 with FPP as prenyl group donor with bcLimE2 [5] stood at 0.62 mM. Further, the KM (mM), kinetics of prenylation of bcLimE2 with GPP as prenyl group donor with bcLimE2 [5] was determined as 0.58 mM.
